Data reported in patent US8080423B2, “Reagent containing protease reaction promoter and/or colorant stabilizer” (Asahi Kasei Pharma Corporation, priority 2004, dated 2011).

Columns and labels:
[1] = Screening of stabilizer for colorant, DA64 (Example 13); type: physicochemical; conditions: 37° C.; for blank (distilled water) change in absorbance: DA-64, 750 nm, additives at conc. (1%; IDA 1 mM; Zn, Al 0.1 mM; ferrocyanide 0.01 mM; sorbitol 5%; DMSO 10%); for change in absorbance when 500 μM of hydrogen peroxide was measured: DA-64
Protocol: (§1) The following substances were used as test samples. Note that concentrations described in parentheses each represent a final concentration of the substance in the reagent R-1.
(§2) Tween-20 (1%), Brij35 (1%), Triton X-100 (1%), deoxycholic acid (1%), imino-diacetic acid (IDA; 1 mM), ZnSO4 (0.1 mM), AlCl3 (0.1 mM), potassium ferrocyanate (0.01 mM), sorbitol (5%), glucose (5%), sodium nitrite (2 mM), dimethylsulfoxide (DMSO; 10%) (those substances are manufactured by Wako Pure Chemical Industries, Inc.), 2-hydroxypropyl-β-cyclodextrin (2HP β CD; 0.5%, 2%, 5%) and methyl-β-cyclodextrin (M β CD; 0.5%, 2%, 5%) (those substances are manufactured by Nihon Shokuhin Kako Co., Ltd.).
(§3) 500 μl of the R-1 reagent and 500 μl of the R-2 which had been incubated to 37° C. were mixed. The mixture was incubated to 37° C. for 2 minutes, and absorbance thereof (A0) was measured. The mixture was added with 10 μl of 500 μM hydrogen peroxide or distilled water. The whole was incubated to 37° C., and absorbance exactly 5 minutes after the addition of hydrogen peroxide (A1) was measured, to calculate a change in absorbance ΔA (A1-A0). The absorbance was measured using a wavelength of 750 nm when DA64 was used as the colorant, a wavelength of 660 nm when DA67 was used as the colorant, and a wavelength of 570 nm when 4-AA-TOOS was used as the colorant.
(§4) Immediately after the preparation of the reagent, the reagent was preserved at 37° C. for 2 days and 9 days, and measurement of sensitivity of a blank which was distilled water and of hydrogen peroxide was performed.

[2] = Screening of stabilizer for colorant, DA67 (Example 13); type: physicochemical; conditions: 37° C.; for blank (distilled water) change in absorbance: DA-67, 660 nm; for change in absorbance when 500 μM of hydrogen peroxide was measured: DA-67
Protocol: as §1, §2, §3, §4

[3] = Screening of stabilizer for colorant, MBTH-TOOS (Example 13); type: physicochemical; conditions: MBTH-TOOS, 37° C.; for blank (distilled water) change in absorbance: 570 nm, additives at conc. (1%; IDA 1 mM; Zn, Al 0.1 mM; ferrocyanide 0.01 mM; sorbitol 5%; DMSO 10%)
[4] = Screening of stabilizer for colorant, overall statements (Example 13); type: physicochemical; conditions: Tables 2-1 and 2-2
Protocol: as §2, §3, §4

[5] = system: Neutral protease (manufactured by Toyobo Co., Ltd.); experiment: Screening of protease reaction promoter (Example 1); type: biochemical
Protocol: 1) R-1: Reagent for Protein Decomposition
2) R-2: Reagent for Glycated Amino Acid Detection
The following substances were independently used as a test sample. Note that concentrations described in parentheses each represent a final concentration of the substance in the reagent R1.
Absorbance before the addition of the reagent R-2 and 5 minutes after the addition was measured at 660 nm. […] The AH-AL shown in Table 1 is a difference obtained by subtracting absorbance AL which was obtained from the primary calibrator at level 2 (5.38%) from absorbance AH which was obtained from the primary calibrator at level 4 (9.88%). Here, if AH-AL is large, the sample is judged to have a protease reaction promoting effect. In particular, when AH-AL is 20 or more, the sample has an excellent promoting effect.

protease = molecular target: T1, protease (Bacillus licheniformis, UniProt P00780); experiment: Effect of protease reaction promoter on glycated albumin measurement (Example 12); type: biochemical
T1 construct: purchased Sigma Aldrich Japan K.K
T1 sequence (P00780 106-379): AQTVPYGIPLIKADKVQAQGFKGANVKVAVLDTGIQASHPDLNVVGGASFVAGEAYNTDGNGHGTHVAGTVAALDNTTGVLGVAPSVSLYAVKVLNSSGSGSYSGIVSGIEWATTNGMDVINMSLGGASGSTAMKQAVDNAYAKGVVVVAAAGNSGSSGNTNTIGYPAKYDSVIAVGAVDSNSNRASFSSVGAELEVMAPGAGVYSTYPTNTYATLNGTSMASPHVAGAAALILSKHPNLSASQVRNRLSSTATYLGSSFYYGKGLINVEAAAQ
Protocol: The reagents of Example 5 were used. 240 μl of the reagent R-1 which had been incubated to 37° C. was added with 8 μl of a control plasma H (manufactured by BML Inc.); […], and absorbance thereof was measured using a dominant wavelength of 546 nm and a subwavelength of 700 nm. A reaction was initiated at 37° C., and 80 μl of the R-2 reagent was added to the mixture exactly 5 minutes after the initiation. Absorbance before the addition of the R-2 reagent and after 5 minutes of the addition was measured. In addition, measurement was performed for a blank which was prepared by using distilled water instead of the substrate solution. The change in absorbance obtained from the control substrate solution was subtracted by the change in absorbance obtained from the blank sample, to thereby calculate ΔA0. Conversion of the values was performed by simultaneous measurement for a calibrator (manufactured by Asahi Kasei Pharma Corporation) for Lucica GA and comparison of absorbance. The measurement value for albumin was obtained from a difference in absorbance which was obtained by subtracting absorbance immediately before the addition of the R-2 reagent from absorbance immediately after the addition of the sample. […]

[6] = 0 days, additives at conc. (1%; IDA 1 mM; Zn, Al 0.1 mM; ferrocyanide 0.01 mM; sorbitol 5%; DMSO 10%)
[7] = 2 days, additives at conc. (1%; IDA 1 mM; Zn, Al 0.1 mM; ferrocyanide 0.01 mM; sorbitol 5%; DMSO 10%)
[8] = 9 days, additives at b284 conc. (Zn, Al 0.1 mM; ferrocyanide 0.01 mM)

| Molecule | blank (distilled water) change in absorbance ([1]; 0 days) [Abs] | blank (distilled water) change in absorbance ([1]; 2 days) [Abs] | blank (distilled water) change in absorbance ([1]; 9 days) [Abs] | change in absorbance when 500 μM of hydrogen peroxide was measured ([1]; 0 days, cyclodextrin 0.5%) | change in absorbance when 500 μM of hydrogen peroxide was measured ([1]; 0 days, cyclodextrin 2.0%) | change in absorbance when 500 μM of hydrogen peroxide was measured ([1]; 0 days, cyclodextrin 5.0%) | change in absorbance when 500 μM of hydrogen peroxide was measured ([1]; 2 days, cyclodextrin 0.5%) | change in absorbance when 500 μM of hydrogen peroxide was measured ([1]; 2 days, cyclodextrin 2.0%) | change in absorbance when 500 μM of hydrogen peroxide was measured ([1]; 2 days, cyclodextrin 5.0%) | change in absorbance when 500 μM of hydrogen peroxide was measured ([1]; 9 days, cyclodextrin 0.5%) | change in absorbance when 500 μM of hydrogen peroxide was measured ([1]; 9 days, cyclodextrin 2.0%) | change in absorbance when 500 μM of hydrogen peroxide was measured ([1]; 9 days, cyclodextrin 5.0%) | blank (distilled water) change in absorbance [2, 6] [Abs] | blank (distilled water) change in absorbance [2, 7] [Abs] | blank (distilled water) change in absorbance [2, 8] [Abs] | change in absorbance when 500 μM of hydrogen peroxide was measured ([2]; 0 days, cyclodextrin 0.5%) | change in absorbance when 500 μM of hydrogen peroxide was measured ([2]; 0 days, cyclodextrin 2.0%) | change in absorbance when 500 μM of hydrogen peroxide was measured ([2]; 0 days, cyclodextrin 5.0%) | change in absorbance when 500 μM of hydrogen peroxide was measured ([2]; 2 days, cyclodextrin 0.5%) | change in absorbance when 500 μM of hydrogen peroxide was measured ([2]; 2 days, cyclodextrin 2.0%) | further results |
| --- | --- | --- | --- | --- | --- | --- | --- | --- | --- | --- | --- | --- | --- | --- | --- | --- | --- | --- | --- | --- | --- |
| 2-hydroxypropyl-β-cyclodextrin [2HPβCD] | −0.007 | 0.007 | 0.010 | 0.375 | 0.386 | 0.385 | 0.315 | 0.322 | 0.326 | 0.251 | 0.269 | 0.271 | 0.119 | 0.762 | 1.822 | 0.531 | 0.522 | 0.528 | 0.301 | 0.306 | change in absorbance when 500 μM of hydrogen peroxide was measured ([2]; 2 days, cyclodextrin 5.0%): 0.309; change in absorbance when 500 μM of hydrogen peroxide was measured ([2]; 9 days, cyclodextrin 0.5%): 0.277; change in absorbance when 500 μM of hydrogen peroxide was measured ([2]; 9 days, cyclodextrin 2.0%): 0.279; change in absorbance when 500 μM of hydrogen peroxide was measured ([2]; 9 days, cyclodextrin 5.0%): 0.281; blank (distilled water) change in absorbance ([3]; 0 days): 0.166 Abs; blank (distilled water) change in absorbance ([3]; 2 days): 0.815 Abs; change in absorbance when 500 μM of hydrogen peroxide was measured ([3]; 0 days, cyclodextrin 0.5%): 0.199; change in absorbance when 500 μM of hydrogen peroxide was measured ([3]; 0 days, cyclodextrin 2.0%): 0.200; change in absorbance when 500 μM of hydrogen peroxide was measured ([3]; 0 days, cyclodextrin 5.0%): 0.203; change in absorbance when 500 μM of hydrogen peroxide was measured ([3]; 2 days, cyclodextrin 0.5%): 0.145; change in absorbance when 500 μM of hydrogen peroxide was measured ([3]; 2 days, cyclodextrin 2.0%): 0.155; change in absorbance when 500 μM of hydrogen peroxide was measured ([3]; 2 days, cyclodextrin 5.0%): 0.159; effect on the blank during preservation (in words) [4]: suppressing effects on the blank |
| CCCCCCCCCCCC(=O)N(C)CCC(=O)[O-].[Na+] [Alaninate LN-30, sodium lauroyl methyl alaninate] |  |  |  |  |  |  |  |  |  |  |  |  |  |  |  |  |  |  |  |  | protease reaction promoting effect (in words) ([5]; judged from Table 1): effects were observed; AH (absorbance from primary calibrator at level 4 (9.88%)) ([5]; test sample 1% in R-1, 660 nm): 92.3; AL (absorbance from primary calibrator at level 2 (5.38%)) ([5]; test sample 1% in R-1, 660 nm): 65.6; AH − AL ([5]; test sample 1% in R-1, 660 nm, 20 or more = excellent promoting effect): 26.7 mAbs; sensitivity of the GA measurement (protease; control serum, no dilution, with protease reaction promoter (without: 32 mAbs)): 48 mAbs; increase of reaction rate (protease; with vs without protease reaction promoter): 1.5 folds |
| methyl-β-cyclodextrin [MβCD] | −0.01 | 0.005 | 0.006 | 0.371 | 0.376 | 0.365 | 0.302 | 0.309 | 0.315 | 0.266 | 0.271 | 0.273 | 0.133 | 0.657 | 1.430 | 0.516 | 0.519 | 0.515 | 0.355 | 0.361 | change in absorbance when 500 μM of hydrogen peroxide was measured ([2]; 2 days, cyclodextrin 5.0%): 0.364; change in absorbance when 500 μM of hydrogen peroxide was measured ([2]; 9 days, cyclodextrin 0.5%): 0.306; change in absorbance when 500 μM of hydrogen peroxide was measured ([2]; 9 days, cyclodextrin 2.0%): 0.311; change in absorbance when 500 μM of hydrogen peroxide was measured ([2]; 9 days, cyclodextrin 5.0%): 0.323; blank (distilled water) change in absorbance ([3]; 0 days): 0.115 Abs; blank (distilled water) change in absorbance ([3]; 2 days): 0.757 Abs; change in absorbance when 500 μM of hydrogen peroxide was measured ([3]; 0 days, cyclodextrin 0.5%): 0.175; change in absorbance when 500 μM of hydrogen peroxide was measured ([3]; 0 days, cyclodextrin 2.0%): 0.18; change in absorbance when 500 μM of hydrogen peroxide was measured ([3]; 0 days, cyclodextrin 5.0%): 0.181; change in absorbance when 500 μM of hydrogen peroxide was measured ([3]; 2 days, cyclodextrin 0.5%): 0.135; change in absorbance when 500 μM of hydrogen peroxide was measured ([3]; 2 days, cyclodextrin 2.0%): 0.136; change in absorbance when 500 μM of hydrogen peroxide was measured ([3]; 2 days, cyclodextrin 5.0%): 0.145; effect on the blank during preservation (in words) [4]: suppressing effects on the blank |
